We go through 4 compounds from ChEMBL document CHEMBL5108067, “Discovery of Potent OTUB1/USP8 Dual Inhibitors Targeting Proteostasis in Non-Small-Cell Lung Cancer” (J Med Chem, 2022).

One test concerns NCI-H1975. Nature of the test: Antiproliferative activity against human NCI-H1975 cells harboring wild type KRAS incubated for 72 hrs by MTT assay. Type of test: functional, cell-based. As to conditions: NCI-H1975, 72 h. In general terms: Formazan colour is commonly taken as a measure of viable cells.
For test [1], the target named is T1, Ubiquitin carboxyl-terminal hydrolase 36 (Homo sapiens, UniProt Q9P275).
T1 sequence (Q9P275 whole entry): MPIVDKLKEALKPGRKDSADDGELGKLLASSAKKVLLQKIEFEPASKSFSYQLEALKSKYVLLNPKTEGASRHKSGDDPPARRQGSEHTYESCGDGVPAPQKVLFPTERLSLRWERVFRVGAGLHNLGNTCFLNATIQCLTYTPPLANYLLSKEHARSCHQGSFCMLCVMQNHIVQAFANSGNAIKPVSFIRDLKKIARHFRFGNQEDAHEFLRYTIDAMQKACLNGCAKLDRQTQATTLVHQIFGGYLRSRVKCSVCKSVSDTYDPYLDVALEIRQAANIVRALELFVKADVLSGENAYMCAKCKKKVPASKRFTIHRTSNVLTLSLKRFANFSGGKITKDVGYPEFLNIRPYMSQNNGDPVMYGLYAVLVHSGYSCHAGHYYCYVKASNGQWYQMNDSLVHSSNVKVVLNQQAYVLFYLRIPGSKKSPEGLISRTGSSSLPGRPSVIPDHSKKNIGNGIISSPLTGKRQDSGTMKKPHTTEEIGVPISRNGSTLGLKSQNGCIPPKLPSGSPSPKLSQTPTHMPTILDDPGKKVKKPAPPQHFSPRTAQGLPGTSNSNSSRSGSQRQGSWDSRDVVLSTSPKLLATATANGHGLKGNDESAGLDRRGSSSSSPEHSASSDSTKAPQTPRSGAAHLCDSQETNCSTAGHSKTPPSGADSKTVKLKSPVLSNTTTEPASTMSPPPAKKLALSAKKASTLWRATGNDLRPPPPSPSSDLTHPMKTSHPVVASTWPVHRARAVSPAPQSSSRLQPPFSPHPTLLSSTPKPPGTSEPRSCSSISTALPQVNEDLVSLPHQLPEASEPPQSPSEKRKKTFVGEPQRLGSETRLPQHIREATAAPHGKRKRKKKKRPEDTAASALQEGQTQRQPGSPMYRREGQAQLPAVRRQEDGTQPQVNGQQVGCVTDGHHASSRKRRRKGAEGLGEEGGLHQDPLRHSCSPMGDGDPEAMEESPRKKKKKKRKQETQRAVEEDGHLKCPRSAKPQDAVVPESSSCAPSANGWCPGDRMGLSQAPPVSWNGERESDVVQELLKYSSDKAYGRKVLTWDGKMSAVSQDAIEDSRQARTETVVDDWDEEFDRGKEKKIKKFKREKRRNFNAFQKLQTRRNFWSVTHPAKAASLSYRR
Nature of the test: Inhibition of USP36 (unknown origin) using Ub-Rho measured after 0.5 to 3 hrs.

Test [2] addresses T2, Ubiquitin thioesterase OTUB1 (Homo sapiens, UniProt Q96FW1). Nature of the test: Destabilization of N-terminal His-6 tagged OTUB1 (40 to 271 residues) (unknown origin) expressed in Escherichia coli BL21 (DE3) cells assessed as reduction in melting temperature at 200 uM measured for 2 hrs in presence of dithiothreitol by SYPRO orange dye based thermal shift assay.
The test system of another test is NCI-H1703. Nature of the test: Antiproliferative activity against human NCI-H1703 cells harboring wild type KRAS incubated for 72 hrs by MTT assay. Type of test: functional, cell-based. Conditions: NCI-H1703, 72 h.
Test [3] concerns the target T2, Ubiquitin thioesterase OTUB1. Nature of the test: Inhibition of N-terminal His-6 tagged OTUB1 (40 to 271 residues) (unknown origin) expressed in Escherichia coli BL21 (DE3) cells at 100 nM using Ub-Rho measured after 0.5 to 3 hrs by fluorescence based Plate reader method relative to control. Conditions: time 0.5-3 hrs, values are per cent of control.
Test [4] has as its target T3, Ubiquitin carboxyl-terminal hydrolase 8 (Homo sapiens, UniProt P40818).
T3 sequence (P40818 whole entry): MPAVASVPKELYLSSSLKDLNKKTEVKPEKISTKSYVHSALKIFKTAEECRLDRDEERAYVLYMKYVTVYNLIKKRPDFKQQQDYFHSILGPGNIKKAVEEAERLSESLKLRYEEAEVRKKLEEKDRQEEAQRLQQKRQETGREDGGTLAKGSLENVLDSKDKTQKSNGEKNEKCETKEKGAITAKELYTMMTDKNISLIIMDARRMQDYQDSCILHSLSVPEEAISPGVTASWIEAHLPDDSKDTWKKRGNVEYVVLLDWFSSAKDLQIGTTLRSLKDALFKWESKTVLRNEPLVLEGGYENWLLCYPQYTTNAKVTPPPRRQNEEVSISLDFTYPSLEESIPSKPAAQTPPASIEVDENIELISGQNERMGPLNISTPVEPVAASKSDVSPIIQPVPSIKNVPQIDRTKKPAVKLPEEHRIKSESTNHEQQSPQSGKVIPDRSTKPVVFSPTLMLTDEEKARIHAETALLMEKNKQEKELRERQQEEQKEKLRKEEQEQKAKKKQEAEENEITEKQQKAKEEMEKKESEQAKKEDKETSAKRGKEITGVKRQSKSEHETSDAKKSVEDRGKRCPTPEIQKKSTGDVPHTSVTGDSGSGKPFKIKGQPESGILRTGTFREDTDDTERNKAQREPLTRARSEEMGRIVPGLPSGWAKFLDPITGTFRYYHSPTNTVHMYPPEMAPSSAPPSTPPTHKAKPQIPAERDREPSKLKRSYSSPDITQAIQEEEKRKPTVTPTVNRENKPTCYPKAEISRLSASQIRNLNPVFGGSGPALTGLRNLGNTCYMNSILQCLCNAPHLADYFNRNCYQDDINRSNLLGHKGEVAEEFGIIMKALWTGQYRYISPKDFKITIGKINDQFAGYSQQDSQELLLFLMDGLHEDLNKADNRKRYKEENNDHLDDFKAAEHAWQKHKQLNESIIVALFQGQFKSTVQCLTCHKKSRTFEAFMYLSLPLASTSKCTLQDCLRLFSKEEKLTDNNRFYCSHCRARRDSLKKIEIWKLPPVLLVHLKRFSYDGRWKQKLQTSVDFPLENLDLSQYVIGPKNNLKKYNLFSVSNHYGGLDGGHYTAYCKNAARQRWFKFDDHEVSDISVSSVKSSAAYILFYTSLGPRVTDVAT
Nature of the test: Inhibition of N-terminal His-6 tagged USP8 (734 to 1110 residues) (unknown origin) expressed in Escherichia coli BL21 (DE3) cells measured after 3 hrs by fluorescence based Plate reader method.

A further test deals with Ataxin-3 (Homo sapiens, UniProt P54252). Nature of the test: Inhibition of Ataxin-3 (unknown origin) using Ub-Rho measured after 0.5 to 3 hrs.
Ataxin-3, sequence (P54252 whole entry): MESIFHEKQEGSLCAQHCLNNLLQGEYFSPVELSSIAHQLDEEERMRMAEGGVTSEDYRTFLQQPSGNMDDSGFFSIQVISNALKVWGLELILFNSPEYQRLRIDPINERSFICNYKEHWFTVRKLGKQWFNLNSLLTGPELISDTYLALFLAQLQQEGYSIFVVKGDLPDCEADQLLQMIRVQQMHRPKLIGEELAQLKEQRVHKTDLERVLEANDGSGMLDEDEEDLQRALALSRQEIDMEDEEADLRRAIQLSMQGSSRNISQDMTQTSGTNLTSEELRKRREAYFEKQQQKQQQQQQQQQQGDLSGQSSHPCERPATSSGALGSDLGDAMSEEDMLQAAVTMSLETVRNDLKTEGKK
The next test relates to A549. Nature of the test: Antiproliferative activity against human A549 cells harboring KRAS mutant incubated for 72 hrs by MTT assay. Conditions: A549, 72 h. Type of test: functional, cell-based.
The target in test [5] is Ubiquitin carboxyl-terminal hydrolase 7 (Homo sapiens, UniProt Q93009). Nature of the test: Inhibition of USP7 (unknown origin) using Ub-Rho measured after 0.5 to 3 hrs.
Ubiquitin carboxyl-terminal hydrolase 7, sequence (Q93009 whole entry, the tested form may be a part): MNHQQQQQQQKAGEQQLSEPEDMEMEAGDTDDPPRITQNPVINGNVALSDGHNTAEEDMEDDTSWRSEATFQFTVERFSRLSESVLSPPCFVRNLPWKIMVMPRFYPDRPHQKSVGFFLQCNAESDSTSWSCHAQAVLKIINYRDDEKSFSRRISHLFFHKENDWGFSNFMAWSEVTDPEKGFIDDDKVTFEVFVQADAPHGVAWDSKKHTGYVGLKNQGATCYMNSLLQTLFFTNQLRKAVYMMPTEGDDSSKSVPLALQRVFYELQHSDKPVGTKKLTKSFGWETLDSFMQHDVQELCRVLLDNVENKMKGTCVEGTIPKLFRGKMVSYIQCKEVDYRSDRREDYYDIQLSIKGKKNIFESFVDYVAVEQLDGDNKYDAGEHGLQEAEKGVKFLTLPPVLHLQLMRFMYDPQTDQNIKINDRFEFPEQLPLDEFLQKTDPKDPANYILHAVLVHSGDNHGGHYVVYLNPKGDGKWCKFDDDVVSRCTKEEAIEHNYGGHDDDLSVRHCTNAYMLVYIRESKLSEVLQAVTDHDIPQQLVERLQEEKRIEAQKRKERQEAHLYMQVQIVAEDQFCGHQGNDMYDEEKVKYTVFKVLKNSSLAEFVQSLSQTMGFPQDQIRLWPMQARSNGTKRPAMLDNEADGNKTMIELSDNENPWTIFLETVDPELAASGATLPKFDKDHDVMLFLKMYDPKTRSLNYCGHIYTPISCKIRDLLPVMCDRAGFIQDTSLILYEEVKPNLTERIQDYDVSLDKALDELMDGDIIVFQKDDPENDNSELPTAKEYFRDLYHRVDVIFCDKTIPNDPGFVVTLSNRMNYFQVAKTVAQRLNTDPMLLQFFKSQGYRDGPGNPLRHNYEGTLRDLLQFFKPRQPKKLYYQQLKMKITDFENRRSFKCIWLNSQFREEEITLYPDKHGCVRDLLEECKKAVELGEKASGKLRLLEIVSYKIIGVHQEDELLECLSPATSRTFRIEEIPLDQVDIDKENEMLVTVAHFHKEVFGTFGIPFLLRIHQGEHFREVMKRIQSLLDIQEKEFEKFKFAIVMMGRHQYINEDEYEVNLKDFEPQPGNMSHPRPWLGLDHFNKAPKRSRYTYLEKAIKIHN
The target of test [6] is T2, Ubiquitin thioesterase OTUB1. Nature of the test: Inhibition of N-terminal His-6 tagged OTUB1 (40 to 271 residues) (unknown origin) expressed in Escherichia coli BL21 (DE3) cells at 10 nM using Ub-Rho measured after 0.5 to 3 hrs by fluorescence based Plate reader method relative to control. Conditions: time 0.5-3 hrs, values are per cent of control.

T2 sequence (Q96FW1 whole entry, the tested form may be a part): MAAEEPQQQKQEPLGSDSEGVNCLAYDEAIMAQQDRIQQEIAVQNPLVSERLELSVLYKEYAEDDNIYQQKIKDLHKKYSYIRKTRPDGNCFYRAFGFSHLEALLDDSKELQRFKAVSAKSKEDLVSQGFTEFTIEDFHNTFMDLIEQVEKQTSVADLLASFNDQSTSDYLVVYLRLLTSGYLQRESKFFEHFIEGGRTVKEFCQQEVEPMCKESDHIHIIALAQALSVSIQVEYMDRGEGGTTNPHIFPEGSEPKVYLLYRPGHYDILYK

On to `CN1CC[C@@H](Oc2ccc(Cl)c(-c3nc4c(o3)C(=O)c3ccccc3C4=O)c2)C1`, for which the concentration for half-maximal inhibition (IC50) (usually the concentration that gives 50% inhibition) in the test on NCI-H1975 is 0.088 µM; in test [1], greater than 10 µM; with NCI-H1703, 0.113 µM; in test [4], 0.00127 µM; at Ataxin-3, greater than 10 µM; with A549 it was 0.701 µM. In test [5], this compound yielded a half-maximal inhibitory concentration (IC50) greater than 10 µM. Moreover, the ΔTm (in general, the change in melting temperature against a reference sample) in test [2] is 1 °C. For the same compound, the residual activity (usually the share of the control activity or signal that is left under treatment) stood at 13.7% in test [3] and 28.9% in [6].
As to `CN1CC[C@@H](Oc2ccc(Cl)c(-c3nc4c(o3)C(=O)c3ccccc3C4=O)c2F)C1`, the IC50 was 0.121 µM in the test with NCI-H1975; 7.2 µM in [1]; 0.173 µM in the test on NCI-H1703; 0.002 µM in test [4]; greater than 10 µM on Ataxin-3; 1.26 µM with A549. In test [5], the IC50 is greater than 10 µM. Besides, in test [2], the thermal shift (ΔTm) turned out to be 1 °C. Also, the figures for the residual activity in test [3] and in test [6] were 7.4% and 10.7%, respectively.
For `O=C1c2ccccc2C(=O)c2oc(-c3cccnc3)nc21`, the IC50 was 0.098 µM with NCI-H1975; 3.9 µM in test [1]; 0.093 µM in the test on NCI-H1703; 0.0027 µM in test [4]; greater than 10 µM against Ataxin-3; 0.662 µM in the test with A549. The compound further had an IC50 in [5] greater than 10 µM. Moreover, the ΔTm in [2] came out at 1 °C. Also, the residual activity in test [3] was determined as 18.2%; in test [6] it was 42.4%.
Turning to `CN1CC[C@@H](Oc2ccc(F)c(-c3nc4c(o3)C(=O)c3ccccc3C4=O)c2Cl)C1`, the IC50 in the test with NCI-H1975 was 0.118 µM; in test [1], 8.4 µM; in the test on NCI-H1703, 0.145 µM; in [4], 0.00028 µM; on Ataxin-3, greater than 10 µM; in the test with A549, 1 µM. In [5], this compound registered an IC50 greater than 10 µM. For the same compound, the ΔTm in test [2] stood at 2.5 °C. Also, the values for the residual activity in test [3] and in test [6] were 7.3% and 10.5%, respectively.
